In ChEMBL document CHEMBL1201862, “PubChem BioAssay data set” (2004):
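Grown in 96-well plates, cells were treated for 48 hours with each compound at five concentrations. Insufficient inhibition: endpoint recorded as highest concentration tested. At the GI50, growth is halved.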 Activity calls are given as the source filed them. Cut-off read from the data, not from the text of the source: active = GI50 up to about 1.1 µM and inactive = higher.

Experiments:
Assay in all cases: NCI tumour cell line growth inhibition, 48 h
SK-MEL-28 = system: SK-MEL-28
SF-268 = system: SF-268
M14 = system: M14
MDA-MB-231 = system: MDA-MB-231
OVCAR-5 = system: OVCAR-5
NCI-H460 = system: NCI-H460
T47D = system: T47D
RXF 393 = system: RXF 393
DU-145 = system: DU-145
786-0 = system: 786-0
ACHN = system: ACHN
KM12 = system: KM12
RPMI-8226 = system: RPMI-8226
OVCAR-4 = system: OVCAR-4
HOP-92 = system: HOP-92
HCT-116 = system: HCT-116
OVCAR-8 = system: OVCAR-8
U-251 = system: U-251
SF-539 = system: SF-539
COLO 205 = system: COLO 205
CCRF-CEM = system: CCRF-CEM
HOP-62 = system: HOP-62
SF-295 = system: SF-295
SN12C = system: SN12C
SNB-19 = system: SNB-19
SK-MEL-2 = system: SK-MEL-2
LOX IMVI = system: LOX IMVI
K562 = system: K562
PC-3 = system: PC-3
UACC-62 = system: UACC-62
SK-MEL-5 = system: SK-MEL-5
MDA-MB-435 = system: MDA-MB-435
HCC 2998 = system: HCC 2998
TK-10 = system: TK-10
A549 = system: A549
EKVX = system: EKVX
Hs-578T = system: Hs-578T
SR = system: SR
NCI-H522 = system: NCI-H522
UO-31 = system: UO-31
Malme-3M = system: Malme-3M
SK-OV-3 = system: SK-OV-3
NCI-H226 = system: NCI-H226
NCI/ADR-RES = system: NCI/ADR-RES
MOLT-4 = system: MOLT-4
HT-29 = system: HT-29
CAKI-1 = system: CAKI-1
A498 = system: A498
NCI-H23 = system: NCI-H23
OVCAR-3 = system: OVCAR-3
HL-60 = system: HL-60
HCT-15 = system: HCT-15
IGROV-1 = system: IGROV-1
UACC-257 = system: UACC-257
SW-620 = system: SW-620
SNB-75 = system: SNB-75
MCF7 = system: MCF7
MDA-N = system: MDA-N

SMILES: O=c1ccn2n1Cc1ccccc1C2
- GI50 (SK-MEL-28): > 100 µM (inactive)
- GI50 (SF-268): > 100 µM (inactive)
- GI50 (M14): > 100 µM (inactive)
- GI50 (MDA-MB-231): > 100 µM (inactive)
- GI50 (OVCAR-5): > 100 µM (inactive)
- GI50 (NCI-H460): > 100 µM (inactive)
- GI50 (T47D): > 100 µM (inactive)
- GI50 (RXF 393): > 100 µM (inactive)
- GI50 (DU-145): > 100 µM (inactive)
- GI50 (786-0): > 100 µM (inactive)
- GI50 (ACHN): > 100 µM (inactive)
- GI50 (KM12): > 100 µM (inactive)
- GI50 (RPMI-8226): > 100 µM (inactive)
- GI50 (OVCAR-4): > 100 µM (inactive)
- GI50 (HOP-92): > 100 µM (inactive)
- GI50 (HCT-116): > 100 µM (inactive)
- GI50 (OVCAR-8): > 100 µM (inactive)
- GI50 (U-251): > 100 µM (inactive)
- GI50 (SF-539): > 100 µM (inactive)
- GI50 (COLO 205): > 100 µM (inactive)
- GI50 (CCRF-CEM): > 100 µM (inactive)
- GI50 (HOP-62): > 100 µM (inactive)
- GI50 (SF-295): > 100 µM (inactive)
- GI50 (SN12C): > 100 µM (inactive)
- GI50 (SNB-19): > 100 µM (inactive)
- GI50 (SK-MEL-2): > 100 µM (inactive)
- GI50 (LOX IMVI): > 100 µM (inactive)
- GI50 (K562): > 100 µM (inactive)
- GI50 (PC-3): > 100 µM (inactive)
- GI50 (UACC-62): > 100 µM (inactive)
- GI50 (SK-MEL-5): > 100 µM (inactive)
- GI50 (MDA-MB-435): > 100 µM (inactive)
- GI50 (HCC 2998): > 100 µM (inactive)
- GI50 (TK-10): > 100 µM (inactive)
- GI50 (A549): > 100 µM (inactive)
- GI50 (EKVX): > 100 µM (inactive)
- GI50 (Hs-578T): > 100 µM (inactive)
- GI50 (SR): > 100 µM (inactive)
- GI50 (NCI-H522): > 100 µM (inactive)
- GI50 (UO-31): 79.8 µM (inactive)
- GI50 (Malme-3M): > 100 µM (inactive)
- GI50 (SK-OV-3): > 100 µM (inactive)
- GI50 (NCI-H226): > 100 µM (inactive)
- GI50 (NCI/ADR-RES): > 100 µM (inactive)
- GI50 (MOLT-4): > 100 µM (inactive)
- GI50 (HT-29): > 100 µM (inactive)
- GI50 (CAKI-1): > 100 µM (inactive)
- GI50 (A498): > 100 µM (inactive)
- GI50 (NCI-H23): > 100 µM (inactive)
- GI50 (OVCAR-3): > 100 µM (inactive)
- GI50 (HL-60): > 100 µM (inactive)
- GI50 (HCT-15): > 100 µM
- GI50 (IGROV-1): > 100 µM (inactive)
- GI50 (UACC-257): > 100 µM (inactive)
- GI50 (SW-620): > 100 µM (inactive)

SMILES: CNc1ccc(C(=O)CC(O)CCC(C)C2OC(=O)CC(O)CC(=O)CC(O)CC(O)CC(O)CC(O)CC3(O)CC(O)C(C(=O)NCCN4CCCCC4)C(CC(OC4OC(C)C(O)C(N)C4O)\C=C/C=C\C=C/C=C/C=C/C=C\C=C/C2C)O3)cc1 (stereo not given)
- GI50 (KM12): 1.82 µM (inactive)
- GI50 (K562): 2.07 µM (inactive)
- GI50 (MDA-MB-435): 1.01 µM (active)
- GI50 (SR): 0.272 µM (active)
- GI50 (A498): 0.288 µM (active)
- GI50 (HL-60): 3.88 µM (inactive)

SMILES: CC(C)(C)[Si](C)(C)OCC1CCC(n2cnc3c(NC(=O)c4ccccc4)ncnc32)O1 (stereo not given)
- GI50 (SK-MEL-28): 14.3 µM (inactive)
- GI50 (SF-268): 17.7 µM (inactive)
- GI50 (M14): 16.7 µM (inactive)
- GI50 (MDA-MB-231): 20.7 µM (inactive)
- GI50 (OVCAR-5): 16.7 µM (inactive)
- GI50 (NCI-H460): 18 µM (inactive)
- GI50 (T47D): 26.4 µM (inactive)
- GI50 (RXF 393): 22 µM (inactive)
- GI50 (DU-145): 19.4 µM (inactive)
- GI50 (786-0): 17.5 µM (inactive)
- GI50 (ACHN): 19.2 µM (inactive)
- GI50 (KM12): 17.3 µM (inactive)
- GI50 (RPMI-8226): 33 µM (inactive)
- GI50 (OVCAR-4): 21.8 µM (inactive)
- GI50 (HOP-92): 16.6 µM (inactive)
- GI50 (HCT-116): 19 µM (inactive)
- GI50 (OVCAR-8): 28.5 µM (inactive)
- GI50 (U-251): 18.2 µM (inactive)
- GI50 (SF-539): 18.3 µM (inactive)
- GI50 (COLO 205): 18.5 µM (inactive)
- GI50 (CCRF-CEM): 22 µM (inactive)
- GI50 (HOP-62): 22 µM (inactive)
- GI50 (SF-295): 18.2 µM (inactive)
- GI50 (SN12C): 18 µM (inactive)
- GI50 (SNB-19): 18.9 µM (inactive)
- GI50 (SK-MEL-2): 19 µM (inactive)
- GI50 (LOX IMVI): 20.2 µM (inactive)
- GI50 (K562): 18.7 µM (inactive)
- GI50 (PC-3): 20.6 µM (inactive)
- GI50 (UACC-62): 14 µM (inactive)
- GI50 (SK-MEL-5): 11.5 µM (inactive)
- GI50 (MDA-MB-435): 15.8 µM (inactive)
- GI50 (HCC 2998): 19.5 µM (inactive)
- GI50 (TK-10): 20.5 µM (inactive)
- GI50 (A549): 19 µM (inactive)
- GI50 (EKVX): 17.6 µM (inactive)
- GI50 (Hs-578T): 14 µM (inactive)
- GI50 (SR): 29.9 µM (inactive)
- GI50 (NCI-H522): 16.4 µM (inactive)
- GI50 (SNB-75): 10.4 µM (inactive)
- GI50 (UO-31): 1.54 µM (inactive)
- GI50 (Malme-3M): 19.9 µM (inactive)
- GI50 (SK-OV-3): 20 µM (inactive)
- GI50 (NCI-H226): 15.1 µM (inactive)
- GI50 (NCI/ADR-RES): 16.6 µM (inactive)
- GI50 (MOLT-4): 18.2 µM (inactive)
- GI50 (HT-29): 19.1 µM (inactive)
- GI50 (CAKI-1): 21.4 µM (inactive)
- GI50 (A498): 21.1 µM (inactive)
- GI50 (NCI-H23): 18.4 µM (inactive)
- GI50 (OVCAR-3): 14 µM (inactive)
- GI50 (HL-60): 18 µM (inactive)
- GI50 (MCF7): 23.9 µM (inactive)
- GI50 (HCT-15): 18.6 µM
- GI50 (MDA-N): 17.2 µM (inactive)
- GI50 (IGROV-1): 18.1 µM (inactive)
- GI50 (UACC-257): 18.7 µM (inactive)
- GI50 (SW-620): 20 µM (inactive)

SMILES: N#CCN(Cc1ccccc1)[C@@H]1CCC[C@]1(O)C#Cc1ccc2c(c1)OCO2
- GI50 (SK-MEL-28): 17.1 µM (inactive)
- GI50 (SF-268): 19.1 µM (inactive)
- GI50 (M14): 16.8 µM (inactive)
- GI50 (MDA-MB-231): 16.9 µM (inactive)
- GI50 (OVCAR-5): 16.1 µM (inactive)
- GI50 (NCI-H460): 16.1 µM (inactive)
- GI50 (T47D): 16.6 µM (inactive)
- GI50 (RXF 393): 15.2 µM (inactive)
- GI50 (DU-145): 27.4 µM (inactive)
- GI50 (786-0): 15.8 µM (inactive)
- GI50 (ACHN): 18 µM (inactive)
- GI50 (KM12): 15.2 µM (inactive)
- GI50 (RPMI-8226): 16 µM (inactive)
- GI50 (OVCAR-4): 15 µM (inactive)
- GI50 (HOP-92): 12.9 µM (inactive)
- GI50 (OVCAR-8): 16.7 µM (inactive)
- GI50 (U-251): 17.9 µM (inactive)
- GI50 (SF-539): 11.7 µM (inactive)
- GI50 (COLO 205): 17.4 µM (inactive)
- GI50 (CCRF-CEM): 17.6 µM (inactive)
- GI50 (HOP-62): 16.2 µM (inactive)
- GI50 (SF-295): 19.8 µM (inactive)
- GI50 (SNB-19): 20.7 µM (inactive)
- GI50 (SK-MEL-2): 16.4 µM (inactive)
- GI50 (LOX IMVI): 15.9 µM (inactive)
- GI50 (K562): 20.3 µM (inactive)
- GI50 (PC-3): 19.7 µM (inactive)
- GI50 (UACC-62): 16.1 µM (inactive)
- GI50 (SK-MEL-5): 16.4 µM (inactive)
- GI50 (MDA-MB-435): 18.5 µM (inactive)
- GI50 (HCC 2998): 16.3 µM (inactive)
- GI50 (TK-10): 21.1 µM (inactive)
- GI50 (A549): 18.5 µM (inactive)
- GI50 (EKVX): 27 µM (inactive)
- GI50 (Hs-578T): 14.1 µM (inactive)
- GI50 (SR): 17.8 µM (inactive)
- GI50 (NCI-H522): 16.1 µM (inactive)
- GI50 (SNB-75): 31 µM (inactive)
- GI50 (UO-31): 28.2 µM (inactive)
- GI50 (Malme-3M): 18.2 µM (inactive)
- GI50 (SK-OV-3): 25.8 µM (inactive)
- GI50 (NCI-H226): 18.6 µM (inactive)
- GI50 (NCI/ADR-RES): 19.5 µM (inactive)
- GI50 (MOLT-4): 16.4 µM (inactive)
- GI50 (HT-29): 18.2 µM (inactive)
- GI50 (CAKI-1): 22.2 µM (inactive)
- GI50 (A498): 20.3 µM (inactive)
- GI50 (NCI-H23): 16.4 µM (inactive)
- GI50 (OVCAR-3): 14.9 µM (inactive)
- GI50 (HL-60): 20.6 µM (inactive)
- GI50 (MCF7): 16.9 µM (inactive)
- GI50 (HCT-15): 21.8 µM
- GI50 (MDA-N): 17.5 µM (inactive)
- GI50 (IGROV-1): 17.1 µM (inactive)
- GI50 (UACC-257): 18.8 µM (inactive)
- GI50 (SW-620): 22.5 µM (inactive)
